Molecules are shown by their SMILES.

This is an account of results in patent US11440907B1 (Merck Patent GmbH, priority 2018, dated 2022).

Common to all, as to format: cell-based
The subject of experiment [1] is β-catenin-TCF-mediated reporter transcription activity in Colo 205 cells. The experiment is described as follows: Colo 205 reporter assay (TCF/LEF promoter-driven firefly luciferase). Particulars: Homo sapiens; Colo 205 TCF/LEF luciferase reporter, 5 hours after compound addition, 384 well; read-out: Colo205 IC50. For orientation: In a reporter assay the amount or activity of a reporter protein is the signal.

The test system of experiment [2] is XBP1(u)-luciferase splicing reporter in HepG2 hepatoma cells. The experiment is described as follows: HepG2 XBP1 reporter assay (XBP1(u)-Luc). The note with it: Homo sapiens, 6 hours after compound addition, Table 3, read-out: XBP1-luc HepG2 1 EC50.
The subject of experiment [3] is intracellular calcium flux in Colo-205 cells. The experiment is described as follows: Calcium flux assay (FLIPR Calcium 5 Assay Kit, FLIPR3). Particulars: Homo sapiens, 0.6 h, calcium flux measured over 36 minutes, read-out: Colo 205 Calcium Flux assay 384w Boston Ca assay FLIPR3 Colo EC50. Here is the method: Compounds described herein induced ER stress by causing intracellular calcium flux. Calcium flux was measured in Colo-205 cells using the FLIPR® Calcium 5 Assay Kit according to manufacturer's protocol (Molecular Devices, Cat. #R8186) on a FLIPR3 system (Molecular Devices). Calcium flux is measured over 36 minutes. The Colo-205 calcium flux assay data are summarized in Table 3: A<0.6 μM; 0.6 μM≤B<2.0 μM; 2.0 μM≤C<10.0 μM; D≥10.0 μM.
For orientation: Calcium flux is commonly read through the fluorescence of an indicator in the cells.

What is called IC50 is the concentration at which inhibition is half-maximal. As usually defined, the EC50 is the concentration needed to bring the measured effect to its halfway point. As for `Cc1cc(N2CCCOC[C@@H]2c2ccc(P(C)(C)=O)cc2Cl)nc(N)n1` [I-214, 4-[3-(2-chloro-4-dimethylphosphoryl-phenyl)-1,4-oxazepan-4-yl]-6-methyl-pyrimidin-2-amine], the IC50 in experiment [1] lay in the range of 300 to 1000 nM. In addition, the values for the 50% effective concentration (EC50) in experiment [2] and in experiment [3] were 2000 to 5000 nM and less than 600 nM, respectively.

`Cc1cc(N2CCCOC[C@@H]2c2ccc(CS(C)(=O)=O)cc2Cl)nc(N)n1` (single isomer, unassigned) [I-224]: in experiment [1], the IC50 was less than 300 nM. The EC50 in experiment [2] and in experiment [3] was less than 600 nM each time.

Take `Cc1cc(N2CCCOCC2c2cc(N3CCCC3)ccc2Cl)nc(N)n1` (racemic) [I-199, (+/−)-4-[3-(2-chloro-5-pyrrolidin-1-yl-phenyl)-1,4-oxazepan-4-yl]-6-methyl-pyrimidin-2-amine]: in experiment [1], the IC50 lay within 300 to 1000 nM. The figures for the EC50 in experiment [2] and in experiment [3] were 600 to 2000 nM and less than 600 nM, respectively.

Consider `Cc1cc(N2CCCOC[C@@H]2c2ccc(NC(=O)C3(O)CC3)cc2Cl)nc(N)n1` (single isomer, unassigned) [I-197], for which the IC50 in experiment [1] was 300 to 1000 nM. Moreover, the EC50 in experiment [2] and in experiment [3] was less than 600 nM throughout.

Consider `Cc1cc(N2CCCOC[C@H]2c2cc(NC(=O)C(F)(F)F)ccc2Cl)nc(N)n1` (single isomer, unassigned) [I-176], for which the IC50 in experiment [1] fell in the range of 300 to 1000 nM. In addition, the values for the EC50 in experiment [2] and in experiment [3] were 600 to 2000 nM and less than 600 nM, respectively.

`COc1ccc(OC)c([C@H]2CCCCCN2c2cc(C)nc(N)n2)c1` (single isomer, unassigned) [I-40]: the IC50 in experiment [1] was less than 300 nM. For the same compound, the EC50 in experiment [2] and in experiment [3] was less than 600 nM each time.

For `CNc1ccc(Cl)c(C2COCCCN2c2cc(C)nc(N)n2)c1` (racemic) [I-175, (+/−)-4-[3-[2-chloro-5-(methylamino)phenyl]-1,4-oxazepan-4-yl]-6-methyl-pyrimidin-2-amine], in experiment [1], the IC50 was less than 300 nM. The EC50 in experiment [2] and in experiment [3] was less than 600 nM throughout.

Regarding `Cc1cc(N2CCCOC[C@@H]2c2ccc(NC(=O)C3CC3)cc2Cl)nc(N)n1` (single isomer, unassigned) [I-207], the IC50 in experiment [1] was less than 300 nM. The EC50 in experiment [2] and in experiment [3] was less than 600 nM throughout.

With `Cc1nc(N)nc2c1-c1c(NC3COC3)ccc(Cl)c1C1COCCCN21` (stereo not drawn) [I-309], the IC50 in experiment [1] was less than 300 nM. Also, the concentration giving a half-maximal response (EC50) in experiment [2] and in experiment [3] was less than 600 nM in each case.

For `Cc1cc(N2CCCOC[C@@H]2c2ccc(N3CCOCC3)cc2Cl)nc(N)n1` [I-216, 4-[(3S)-3-(2-chloro-4-morpholino-phenyl)-1,4-oxazepan-4-yl]-6-methyl-pyrimidin-2-amine], the half-inhibitory concentration (IC50) in experiment [1] is less than 300 nM. In addition, the EC50 in experiment [2] and in experiment [3] was less than 600 nM throughout.

Regarding `Cc1cc(N2CCCOCC2c2ccc(P(C)(C)=O)cc2Cl)nc(N)n1` (racemic) [I-202, (+/−)-4-[3-(2-chloro-4-dimethylphosphoryl-phenyl)-1,4-oxazepan-4-yl]-6-methyl-pyrimidin-2-amine], the IC50 in experiment [1] fell in the range of 300 to 1000 nM. Further, the EC50 was no less than 5000 nM in experiment [2] and 600 to 2000 nM in experiment [3].

`Cc1cc(N2CCCOC[C@@H]2c2ccc(N(C)C3COC3)cc2Cl)nc(N)n1` (single isomer, unassigned) [I-190]: in experiment [1], the IC50 was less than 300 nM. Besides, the half-maximal effective concentration (EC50) in experiment [2] and in experiment [3] was less than 600 nM throughout.

For `Cc1cc(N2CCCOCC2c2cc(NC(=O)C3CCO3)ccc2Cl)nc(N)n1` (racemic) [I-184, (+/−)-N-[3-[4-(2-amino-6-methyl-pyrimidin-4-yl)-1,4-oxazepan-3-yl]-4-chloro-phenyl]oxetane-2-carboxamide], the IC50 in experiment [1] fell in the range of 300 to 1000 nM. Further, the EC50 was 2000 to 5000 nM in experiment [2] and less than 600 nM in experiment [3].

Turning to `Cc1cc(N2CCCOCC2c2cc(N3CCOCC3)ccc2Cl)nc(N)n1` (racemic) [I-226, (+/−)-4-(3-(2-chloro-5-morpholinophenyl)-1,4-oxazepan-4-yl)-6-methylpyrimidin-2-amine], the IC50 in experiment [1] was in the range of 300 to 1000 nM. The EC50 in experiment [2] and in experiment [3] was less than 600 nM throughout.
